Laboratory results published in patent publication US8987267B2, “2-substituted-8-alkyl-7-OXO-7,8-dihydropyrido[2,3-D]pyrimidine-6-carbonitriles and uses thereof in treating proliferative disorders” (Temple University—of the Commonwealth System of Higher …, priority 2010, dated 2015).

What was measured:
Format in all cases: biochemical
[1] = biological target: T1, His-tagged full length ARK5 (Homo sapiens, UniProt O60285); assay: ARK5 Kinase Assay (ARK5 Inhibition Assay); settings: CHKtide substrate, 1 μM ATP
T1 construct: 20 ng His-tagged full length ARK5 (Invitrogen PV4127); His; purchased Invitrogen PV4127
T1 sequence (O60285 1-661): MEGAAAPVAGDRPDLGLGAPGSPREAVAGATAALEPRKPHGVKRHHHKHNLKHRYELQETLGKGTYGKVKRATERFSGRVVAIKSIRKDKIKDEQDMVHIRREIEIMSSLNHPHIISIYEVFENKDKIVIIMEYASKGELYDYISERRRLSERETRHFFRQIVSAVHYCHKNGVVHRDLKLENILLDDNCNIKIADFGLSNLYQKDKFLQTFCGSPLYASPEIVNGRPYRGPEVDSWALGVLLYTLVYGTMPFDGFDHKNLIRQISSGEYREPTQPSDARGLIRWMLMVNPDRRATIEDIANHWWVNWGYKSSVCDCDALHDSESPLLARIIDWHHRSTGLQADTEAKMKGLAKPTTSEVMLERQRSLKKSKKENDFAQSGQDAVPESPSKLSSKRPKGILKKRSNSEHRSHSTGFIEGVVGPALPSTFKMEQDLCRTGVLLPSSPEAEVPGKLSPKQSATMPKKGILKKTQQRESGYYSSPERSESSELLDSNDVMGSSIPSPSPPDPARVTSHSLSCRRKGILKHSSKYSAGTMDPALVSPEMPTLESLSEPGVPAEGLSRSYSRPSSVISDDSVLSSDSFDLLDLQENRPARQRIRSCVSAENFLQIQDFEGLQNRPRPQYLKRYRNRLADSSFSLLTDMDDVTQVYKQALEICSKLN
Method: 20 ng His-tagged full length ARK5 (Invitrogen PV4127), a protein kinase, was diluted into kinase buffer (25 mM HEPES pH 7.5, 10 mM MgCl2, 0.5 mM EGTA, 0.5 mM Na3V04, 5 mM β Glycerophosphate, 2.5 mM DTT, 0.01% Triton X-100) and incubated with the indicated concentration of a compound of Table 3 at room temperature for 30 minutes. The kinase reactions were then initiated by the addition of 1 μg (3.28 μM) CHKtide substrate peptide (Upstate 12-414), 1 μM ATP and 10 μCi γ^32 P-ATP. The reactions were incubated at 30° C. for 10 minutes.
Subsequently, the reactions were stopped by adding 3% phosphoric acid. A 10 μl aliquot was then transferred to an appropriate area of a p30 filtermat. The filtermat was allowed to dry for 20 minutes at room temperature and then washed three times with 75 mM phosphoric acid and twice with methanol. The filtermat was then dried for 20 minutes at room temperature. The filtermat was then exposed to X ray film or read in a scintillation counter. The scintillation counting values were plotted as function of log drug concentration using Prism 4 Graph pad software and IC50 values determined by plotting sigmoidal non-linear regression curves with variable slope.

[2] = biological target: c-Kit (Homo sapiens, UniProt P10721); assay: Kinase inhibition panel; settings: 10 μM ATP
[3] = biological target: FYN (Homo sapiens, UniProt P06241); assay: Kinase inhibition panel; settings: 10 μM ATP
[4] = biological target: FLT3 (Homo sapiens, UniProt P36888); assay: Kinase inhibition panel; settings: 10 μM ATP
[5] = biological target: EphB1 (Homo sapiens, UniProt P54762); assay: Kinase inhibition panel; settings: 10 μM ATP
Method: (§1) The compounds in Table 4 were tested for the ability to inhibit the kinase activity of the listed protein kinases.

[6] = biological target: TAOK2ITA01 (Homo sapiens, UniProt Q9UL54); assay: Kinase inhibition panel; settings: 10 μM ATP
Method: as §1

[7] = biological target: TGFbR2 (Homo sapiens, UniProt P37173); assay: Kinase inhibition panel; settings: 10 μM ATP
Method: as §1

[8] = biological target: FGFR3 (Homo sapiens, UniProt P22607); assay: Kinase inhibition panel; settings: 10 μM ATP
Method: as §1

[9] = biological target: CDK9/cyclin K (Homo sapiens, UniProt P50750); assay: Kinase inhibition panel; settings: 10 μM ATP
Method: as §1

[10] = biological target: ABL1 (Homo sapiens, UniProt P00519); assay: Kinase inhibition panel; settings: 10 μM ATP
Method: as §1

[11] = biological target: CDK6/cyclinD1 (Homo sapiens, UniProt Q00534); assay: Kinase inhibition panel; settings: 10 μM ATP
Method: as §1

[12] = biological target: PAK3 (Homo sapiens, UniProt O75914); assay: Kinase inhibition panel; settings: 10 μM ATP
Method: as §1

[13] = biological target: CDK5/p35 (Homo sapiens, UniProt Q00535); assay: Kinase inhibition panel; settings: 10 μM ATP
Method: as §1

[14] = biological target: CDK4/Cyclin D1 (Homo sapiens, UniProt P11802); assay: Kinase inhibition panel; settings: 10 μM ATP
Method: as §1

[15] = biological target: TTK (Homo sapiens, UniProt P33981); assay: Kinase inhibition panel; settings: 10 μM ATP
[16] = biological target: FRK/PTK5 (Homo sapiens, UniProt P42685); assay: Kinase inhibition panel; settings: 10 μM ATP
[17] = biological target: LYN (Homo sapiens, UniProt P07948); assay: Kinase inhibition panel; settings: 10 μM ATP
[18] = biological target: PKCmu (Homo sapiens, UniProt Q15139); assay: Kinase inhibition panel; settings: 10 μM ATP
[19] = biological target: FGR (Homo sapiens, UniProt P09769); assay: Kinase inhibition panel; settings: 10 μM ATP
[20] = biological target: CDK7/cyclinH/MNAT1 (Homo sapiens, UniProt P50613); assay: Kinase inhibition panel; settings: 10 μM ATP
[21] = biological target: FLT4NEGFR3 (Homo sapiens, UniProt P35916); assay: Kinase inhibition panel; settings: 10 μM ATP
[22] = biological target: ARK5 (Homo sapiens, UniProt O60285); assay: Kinase inhibition panel; settings: 10 μM ATP
[23] = biological target: CDK6/cyclinD3 (Homo sapiens, UniProt Q00534); assay: Kinase inhibition panel; settings: 10 μM ATP
[24] = biological target: FGFR2 (Homo sapiens, UniProt P21802); assay: Kinase inhibition panel; settings: 10 μM ATP
[25] = biological target: YES/YES1 (Homo sapiens, UniProt P07947); assay: Kinase inhibition panel; settings: 10 μM ATP
[26] = biological target: FGFR4 (Homo sapiens, UniProt P22455); assay: Kinase inhibition panel; settings: 10 μM ATP
Sequence of FGFR4 (P22455 22-802, species assumed): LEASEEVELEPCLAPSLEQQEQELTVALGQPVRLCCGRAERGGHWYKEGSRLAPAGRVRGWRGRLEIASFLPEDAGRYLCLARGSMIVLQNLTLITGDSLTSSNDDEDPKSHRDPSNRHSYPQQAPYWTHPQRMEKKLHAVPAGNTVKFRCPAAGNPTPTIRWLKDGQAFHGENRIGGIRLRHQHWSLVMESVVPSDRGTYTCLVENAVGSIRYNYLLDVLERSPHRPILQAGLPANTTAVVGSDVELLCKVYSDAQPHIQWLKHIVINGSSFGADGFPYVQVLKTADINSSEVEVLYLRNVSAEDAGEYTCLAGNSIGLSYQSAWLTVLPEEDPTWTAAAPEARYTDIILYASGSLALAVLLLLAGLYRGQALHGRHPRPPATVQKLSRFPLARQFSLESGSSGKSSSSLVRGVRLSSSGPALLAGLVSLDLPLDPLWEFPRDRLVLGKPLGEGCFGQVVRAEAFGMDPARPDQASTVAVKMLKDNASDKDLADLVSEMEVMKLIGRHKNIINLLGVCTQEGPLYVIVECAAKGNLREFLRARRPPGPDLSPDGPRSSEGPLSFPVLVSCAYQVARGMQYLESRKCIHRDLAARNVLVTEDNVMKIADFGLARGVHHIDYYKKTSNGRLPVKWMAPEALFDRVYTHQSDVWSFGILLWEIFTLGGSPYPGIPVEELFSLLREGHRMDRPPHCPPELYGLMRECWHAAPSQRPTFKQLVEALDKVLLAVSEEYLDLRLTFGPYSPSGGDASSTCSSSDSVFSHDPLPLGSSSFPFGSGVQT

Sequence of TGFbR2 (P37173 23-567, species assumed): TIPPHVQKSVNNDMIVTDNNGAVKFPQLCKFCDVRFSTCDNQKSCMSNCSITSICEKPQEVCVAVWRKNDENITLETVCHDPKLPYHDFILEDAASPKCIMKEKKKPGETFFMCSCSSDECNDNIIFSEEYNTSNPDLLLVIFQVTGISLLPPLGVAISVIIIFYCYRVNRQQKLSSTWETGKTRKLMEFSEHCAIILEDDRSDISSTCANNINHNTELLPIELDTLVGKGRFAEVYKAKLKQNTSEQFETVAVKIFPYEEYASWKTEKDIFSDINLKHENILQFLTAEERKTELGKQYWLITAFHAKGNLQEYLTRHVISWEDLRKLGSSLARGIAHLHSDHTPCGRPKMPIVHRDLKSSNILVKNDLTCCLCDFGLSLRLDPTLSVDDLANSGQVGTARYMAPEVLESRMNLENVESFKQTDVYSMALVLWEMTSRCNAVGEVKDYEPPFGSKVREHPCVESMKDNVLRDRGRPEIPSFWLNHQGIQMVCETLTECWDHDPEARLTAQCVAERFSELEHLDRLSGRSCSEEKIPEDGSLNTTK
Sequence of CDK6/cyclinD1 (Q00534 whole entry, species assumed): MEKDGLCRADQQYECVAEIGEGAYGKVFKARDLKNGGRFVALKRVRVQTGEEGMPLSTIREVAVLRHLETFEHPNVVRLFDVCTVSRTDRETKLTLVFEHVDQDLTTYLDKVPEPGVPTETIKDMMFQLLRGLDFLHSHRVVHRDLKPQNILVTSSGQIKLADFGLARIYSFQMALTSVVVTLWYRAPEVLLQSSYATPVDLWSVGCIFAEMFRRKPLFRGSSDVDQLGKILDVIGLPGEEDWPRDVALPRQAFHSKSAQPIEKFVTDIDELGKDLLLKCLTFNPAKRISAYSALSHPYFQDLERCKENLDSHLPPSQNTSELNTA
Sequence of CDK6/cyclinD1 (P24385 whole entry partner, species assumed): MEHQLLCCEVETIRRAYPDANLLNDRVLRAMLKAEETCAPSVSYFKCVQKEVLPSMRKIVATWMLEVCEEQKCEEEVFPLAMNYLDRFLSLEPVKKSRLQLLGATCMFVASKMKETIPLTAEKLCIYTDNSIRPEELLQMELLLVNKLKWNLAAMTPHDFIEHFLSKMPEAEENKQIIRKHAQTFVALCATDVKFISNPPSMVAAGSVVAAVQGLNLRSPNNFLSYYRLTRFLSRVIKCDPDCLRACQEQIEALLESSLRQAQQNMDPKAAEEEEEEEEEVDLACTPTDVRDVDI
Sequence of CDK6/cyclinD3 (Q00534 whole entry, species assumed): as the sequence (Q00534 whole entry, species assumed) above
Sequence of CDK6/cyclinD3 (P30281 whole entry partner, species assumed): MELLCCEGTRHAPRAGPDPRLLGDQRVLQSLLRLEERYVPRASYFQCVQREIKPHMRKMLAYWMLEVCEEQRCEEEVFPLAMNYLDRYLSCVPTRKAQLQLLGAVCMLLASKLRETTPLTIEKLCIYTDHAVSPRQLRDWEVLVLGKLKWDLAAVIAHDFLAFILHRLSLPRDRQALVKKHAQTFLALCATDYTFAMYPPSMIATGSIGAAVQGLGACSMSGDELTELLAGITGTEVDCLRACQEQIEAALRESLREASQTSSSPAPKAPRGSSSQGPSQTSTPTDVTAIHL
Sequence of FGR (P09769 whole entry, species assumed): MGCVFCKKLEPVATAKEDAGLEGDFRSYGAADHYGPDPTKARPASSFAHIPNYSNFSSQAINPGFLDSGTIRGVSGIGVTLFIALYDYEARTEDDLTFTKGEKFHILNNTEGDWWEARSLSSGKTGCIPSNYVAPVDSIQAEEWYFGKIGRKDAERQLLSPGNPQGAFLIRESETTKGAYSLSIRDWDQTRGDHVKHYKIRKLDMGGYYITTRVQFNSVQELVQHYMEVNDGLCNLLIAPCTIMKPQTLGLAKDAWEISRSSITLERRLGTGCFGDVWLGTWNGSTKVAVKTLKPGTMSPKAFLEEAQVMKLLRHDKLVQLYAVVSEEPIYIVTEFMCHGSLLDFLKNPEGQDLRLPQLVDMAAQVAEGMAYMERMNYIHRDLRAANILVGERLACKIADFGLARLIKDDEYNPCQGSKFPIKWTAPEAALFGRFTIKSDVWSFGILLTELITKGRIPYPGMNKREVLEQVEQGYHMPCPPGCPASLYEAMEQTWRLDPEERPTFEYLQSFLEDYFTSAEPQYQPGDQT
Sequence of c-Kit (P10721 26-976): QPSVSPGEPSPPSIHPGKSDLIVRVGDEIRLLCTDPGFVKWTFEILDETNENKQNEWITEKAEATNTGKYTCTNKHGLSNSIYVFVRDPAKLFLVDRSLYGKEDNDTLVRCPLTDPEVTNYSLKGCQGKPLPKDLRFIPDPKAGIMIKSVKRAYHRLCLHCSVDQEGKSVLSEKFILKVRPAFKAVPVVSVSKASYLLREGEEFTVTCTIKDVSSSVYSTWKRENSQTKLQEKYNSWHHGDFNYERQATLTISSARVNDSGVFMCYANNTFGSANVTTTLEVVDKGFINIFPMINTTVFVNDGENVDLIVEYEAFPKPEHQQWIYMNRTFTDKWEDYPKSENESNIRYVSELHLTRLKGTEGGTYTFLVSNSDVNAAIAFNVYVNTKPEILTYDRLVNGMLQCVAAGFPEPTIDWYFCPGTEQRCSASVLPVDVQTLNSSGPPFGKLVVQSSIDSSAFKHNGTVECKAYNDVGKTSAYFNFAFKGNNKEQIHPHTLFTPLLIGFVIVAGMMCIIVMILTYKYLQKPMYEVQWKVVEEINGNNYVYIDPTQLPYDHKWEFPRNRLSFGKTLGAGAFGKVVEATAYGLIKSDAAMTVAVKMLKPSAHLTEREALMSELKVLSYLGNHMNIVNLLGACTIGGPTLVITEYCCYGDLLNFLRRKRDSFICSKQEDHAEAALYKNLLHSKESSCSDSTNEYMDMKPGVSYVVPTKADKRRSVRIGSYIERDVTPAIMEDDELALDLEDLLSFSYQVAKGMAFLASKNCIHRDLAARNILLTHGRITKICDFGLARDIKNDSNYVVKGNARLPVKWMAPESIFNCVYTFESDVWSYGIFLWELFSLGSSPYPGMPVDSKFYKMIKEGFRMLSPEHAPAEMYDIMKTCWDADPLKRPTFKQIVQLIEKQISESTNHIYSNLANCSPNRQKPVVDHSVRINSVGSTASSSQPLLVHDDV
Sequence of TAOK2ITA01 (Q9UL54 whole entry): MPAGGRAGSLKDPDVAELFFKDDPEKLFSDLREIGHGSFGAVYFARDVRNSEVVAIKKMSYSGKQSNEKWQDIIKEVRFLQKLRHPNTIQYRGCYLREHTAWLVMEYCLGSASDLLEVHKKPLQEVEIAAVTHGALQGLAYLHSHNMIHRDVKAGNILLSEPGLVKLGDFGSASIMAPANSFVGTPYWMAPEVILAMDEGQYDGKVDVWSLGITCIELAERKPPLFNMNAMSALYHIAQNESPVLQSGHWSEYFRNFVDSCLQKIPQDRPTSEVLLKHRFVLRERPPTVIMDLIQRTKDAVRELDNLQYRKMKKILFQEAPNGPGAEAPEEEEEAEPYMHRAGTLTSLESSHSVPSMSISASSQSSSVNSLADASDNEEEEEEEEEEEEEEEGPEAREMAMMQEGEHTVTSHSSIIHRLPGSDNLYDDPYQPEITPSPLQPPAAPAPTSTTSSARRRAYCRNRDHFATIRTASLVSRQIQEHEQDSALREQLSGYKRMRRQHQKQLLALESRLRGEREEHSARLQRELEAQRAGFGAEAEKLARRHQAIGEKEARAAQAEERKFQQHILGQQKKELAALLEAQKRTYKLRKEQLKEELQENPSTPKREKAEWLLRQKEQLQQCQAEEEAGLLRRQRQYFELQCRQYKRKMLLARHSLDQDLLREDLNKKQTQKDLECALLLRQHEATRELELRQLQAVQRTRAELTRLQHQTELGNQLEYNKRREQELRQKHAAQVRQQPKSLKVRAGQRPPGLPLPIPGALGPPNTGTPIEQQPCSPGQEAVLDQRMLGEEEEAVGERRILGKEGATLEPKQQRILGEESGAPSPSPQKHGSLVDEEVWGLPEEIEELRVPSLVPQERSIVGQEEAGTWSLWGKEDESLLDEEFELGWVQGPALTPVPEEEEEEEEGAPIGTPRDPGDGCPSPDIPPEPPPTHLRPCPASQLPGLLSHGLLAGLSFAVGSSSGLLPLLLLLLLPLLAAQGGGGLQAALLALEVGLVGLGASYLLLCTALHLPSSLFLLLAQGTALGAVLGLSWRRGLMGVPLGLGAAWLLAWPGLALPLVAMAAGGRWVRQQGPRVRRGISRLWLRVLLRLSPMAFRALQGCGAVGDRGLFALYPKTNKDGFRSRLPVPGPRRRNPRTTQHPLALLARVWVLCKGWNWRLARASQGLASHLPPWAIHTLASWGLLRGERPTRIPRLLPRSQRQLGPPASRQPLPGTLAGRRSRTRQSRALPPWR

## CN1CCN(c2ccc(Nc3ncc4cc(C#N)c(=O)n(C5CCCC5)c4n3)cc2)CC1 [Compound 12, 8-cyclopentyl-2-((4-(4-methylpiperazin-1-yl)phenyl)amino)-7-oxo-7,8-dihydropyrido[2,3-d]pyrimidine-6-carbonitrile]
[1]
  IC50: 27.3 nM
[2]
  IC50: 408 nM
[3]
  IC50: 26.6 nM
[4]
  IC50: 13.6 nM
[5]
  IC50: 26.7 nM
[6]
  IC50: 69.6 nM
[7]
  IC50: 62.3 nM
[8]
  IC50: 124 nM
[9]
  IC50: 27.1 nM
[10]
  IC50: 75.6 nM
[11]
  IC50: 18.4 nM
[12]
  IC50: 1930 nM
[13]
  IC50: 181 nM
[14]
  IC50: 4 nM
[15]
  IC50: 156 nM
[16]
  IC50: 575 nM
[17]
  IC50: 68.5 nM
[18]
  IC50: 142 nM
[19]
  IC50: 112 nM
[20]
  IC50: > 10000 nM
[21]
  IC50: 63.5 nM
[22]
  IC50: 7.85 nM
[23]
  IC50: 38.7 nM
[24]
  IC50: 54.8 nM
[25]
  IC50: 38.1 nM
[26]
  IC50: 3550 nM
